Results on 24 compounds are retold here after patent publication US20240368104A1, “Novel Dialkoxynaphtho[2,3-C]Furan-1(3H)-One Derivatives and Pharmaceutical Composition For Preventing or Treating Respiratory Disease or SARS-COV-2 Infection Disease, Comprising Same” (priority 2021, published 2024).

Like-named read-outs stand apart in the source and are kept apart here.

One data set relates to SARS-COV-2. As to the kind of experiment: microbe, parasite or virus in culture. It is filed as cell-based. More on the design: SI (Selectivity Index, CC50/IC50): unit not given here. Particulars: for SI (Selectivity Index, CC50/IC50): SARS-COV-2, values >50 assumed to be 50; for IC50: read-out: SARS-COV-2 inhibition (IC50).
Data set [1] concerns IL-5 expression in Th2 cells. Kind of data set: Inhibition of IL-5 expression in Th2 cells (ELISA). The conditions noted are these: Splenocyte; Th2 cells from mouse splenocytes, compound 1 nM; read-out: Inhibitory ability against IL-5 expression (%). It is filed as cell-based, Balb/C mice. The protocol: Specifically, after spleens were collected from Balb/C mice, CD4+ T cells were isolated therefrom and were seeded at 1-2×10^6 per well into a 48-well tissue culture plate coated with anti-CD3 (5 ug/ml) and anti-CD28 (1 ug/ml). At this time, the culture medium was incubated with IL-2 (20 ng/ml), IL-4 (100 ng/ml), anti-IFNγ (10 ug/ml), anti-IL12 (10 ug/ml), and a derivative of 1 nM for two days, transferred to a new tissue culture plate, and further cultured for three days to induce differentiation into Th2 cells. After replacing with a new medium containing anti-IFNγ (10 ug/ml), anti-IL12 (10 ug/ml) and a derivative of 1 nM, polarization of Th2 cells was induced using PMA and A23187. After two days of culture, the cells were centrifuged and the culture medium was taken to perform IL-5 ELISA. IL-5 ELISA was performed according to the test method of the kit manufacturer.

A short description of another data set: in vitro. The conditions noted are these: African green monkey.
The mark [2] stands for this setting: Severe acute respiratory syndrome coronavirus 2, Vero cells, 24 hours infection.

Turning to `COc1cc2cc3c(c(-c4cnc(OCCN5CCOCC5)nc4)c2cc1OC)C(=O)OC3` [Example 13, 6,7-dimethoxy-9-(2-(2-morpholinoethoxy)pyrimidin-5-yl)naphtho[2,3-c]furan-1(3H)-one], the “SI (Selectivity Index, CC50/IC50)” value with SARS-COV-2 worked out at 1.00. Moreover, in the data set on SARS-COV-2 (setting [2]), the IC50 is over 50 µM. In addition, in data set [1], the inhibition at 0.001 µM stood at 67.7%. The compound also registered a CC50 in the data set “in vitro” of over 50 µM.
`COc1cc2cc3c(c(-c4cnc(N5CCC[C@H]5C(=O)N5C[C@@H](C)O[C@@H](C)C5)nc4)c2cc1OC)C(=O)OC3` [Example 24, 9-(2-((S)-2-((2S,6R)-2,6-dimethylmorpholin-4-carbonyl)pyrrolidin-1-yl)pyrimidin-5-yl)-6,7-dimethoxynaphtho[2,3-c]furan-1(3H)-one]: in the data set on SARS-COV-2, the “SI (Selectivity Index, CC50/IC50)” value is given as 1.00. For the same compound, in the data set on SARS-COV-2 (setting [2]), the IC50 is over 50 µM. Further, the inhibition at 0.001 µM in data set [1] turned out to be 72.3%. This compound also displayed a CC50 in “in vitro” of over 50 µM.
As for `CCCOCCN(CCC)c1ncc(-c2c3c(cc4cc(OC)c(OC)cc24)COC3=O)cn1` [Example 42, 6,7-dimethoxy-9-(2-((2-propoxyethyl)(propyl)amino)pyrimidin-5-yl)naphtho[2,3-c]furan-1(3H)-one], in the data set with SARS-COV-2, the “SI (Selectivity Index, CC50/IC50)” value is reported as 1.00. Moreover, in the data set with SARS-COV-2 (setting [2]), the half-inhibitory concentration (IC50) is over 50 µM. For the same compound, the inhibition at 0.001 µM in data set [1] turned out to be 64.8%. Moreover, in “in vitro”, the CC50 is over 50 µM.
Regarding `CCOC(=O)C1CCCN(c2ncc(-c3c4c(cc5cc(OC)c(OC)cc35)COC4=O)cn2)C1` (stereo not drawn) [Example 15, Ethyl 1-(5-(6,7-dimethoxy-3-oxo-1,3-dihydronaphtho[2,3-c]furan-4-yl)pyrimidin-2-yl) piperidin-3-carboxylate], in the data set on SARS-COV-2, the “SI (Selectivity Index, CC50/IC50)” value was determined as 11.37. Also, the IC50 with SARS-COV-2 (setting [2]) was 4.4 µM. Besides, the inhibition at 0.001 µM in data set [1] came out at 82.9%. In the data set “in vitro”, this compound displayed a CC50 of over 50 µM.
`CCOC(=O)[C@@H]1CCCN1c1ncc(-c2c3c(cc4cc(OC)c(OC)cc24)COC3=O)cn1` [Example 19, (S)ethyl 1-(5-(6,7-dimethoxy-3-oxo-1,3-dihydronaphtho[2,3-c]furan-4-yl)pyrimidin-2-yl)pyrrolidin-2-carboxylate]: in the data set with SARS-COV-2, the “SI (Selectivity Index, CC50/IC50)” value is given as 1.60. Further, the concentration for half-maximal inhibition (IC50) in the data set with SARS-COV-2 (setting [2]) was 31.3 µM. Further, in data set [1], the inhibition at 0.001 µM was 92.3%. In addition, in the data set “in vitro”, the CC50 is over 50 µM.
The matching figures for `CCCOCCNc1ncc(-c2c3c(cc4cc(OC)c(OC)cc24)COC3=O)cn1` [Example 37, 6,7-dimethoxy-9-(2-((2-propoxyethyl)amino)pyrimidin-5-yl)naphtho[2,3-c]furan-1(3H)-one]: 1.00, over 50 µM, 56% and over 50 µM.
In the same order, the values of `COc1cc2cc3c(c(-c4cnc(N[C@H]5CC[C@H](O)CC5)nc4)c2cc1OC)C(=O)OC3` [Example 47, 9-(2-(((1r,4r)-4-hydroxycyclohexyl)amino)pyrimidin-5-yl)-6,7-dimethoxynaptho[2,3-c]furan-1(3H)-one] are 1.00, over 50 µM, 61% and over 50 µM.
`COc1cc2cc3c(c(-c4cnc(NCc5ccc(C)o5)nc4)c2cc1OC)C(=O)OC3` [Example 50, 6,7-dimethoxy-9-(2-(((5-methylfuran-2-yl)methyl)amino)pyrimidin-5-yl)naphtho[2,3-c]furan-1(3H)-one]: the “SI (Selectivity Index, CC50/IC50)” value in the data set with SARS-COV-2 turned out to be 5.27. Further, in the data set with SARS-COV-2 (setting [2]), the IC50 was found to be 9.49 µM. Also, the inhibition at 0.001 µM in data set [1] worked out at 61.5%. For the same compound, the CC50 in “in vitro” was over 50 µM.
The matching figures for `CCCCCCOCCN(CCCCCC)c1ncc(-c2c3c(cc4cc(OC)c(OC)cc24)COC3=O)cn1` [Example 48, 9-(2-(hexyl(2-(hexyloxy)ethyl)amino)pyrimidin-5-yl)-6,7-dimethoxynaphtho[2,3-c]furan-1(3H)-one]: 2.55, 19.6 µM, 58.1% and over 50 µM.
Take `CCOC(=O)CNc1ncc(-c2c3c(cc4cc(OC)c(OC)cc24)COC3=O)cn1` [Example 44, Ethyl (5-(6,7-dimethoxy-3-oxo-1,3-dihydronaphtho[2,3-c]furan-4-yl)pyrimidin-2-yl)glycinate]: the inhibition at 0.001 µM in data set [1] worked out at 58.3%.
`COC(=O)[C@@H](C)NC(=O)[C@@H]1CCCN1c1ncc(-c2c3c(cc4cc(OC)c(OC)cc24)COC3=O)cn1` [Example 38, Methyl (5-(6,7-dimethoxy-3-oxo-1,3-dihydronaphtho[2,3-c]furan-4-yl)pyrimidin-2-yl)-L-prolyl-D-alaninate]: in data set [1], the inhibition at 0.001 µM came to 62.8%.
Still for that read-out and setting: as for `CCOC(=O)CNC(=O)[C@@H]1CCCN1c1ncc(-c2c3c(cc4cc(OC)c(OC)cc24)COC3=O)cn1` [Example 45, Ethyl (5-(6,7-dimethoxy-3-oxo-1,3-dihydronaphtho[2,3-c]furan-4-yl)pyrimidin-2-yl)-L-proglycinate], the figure is 64.2%.
For the compound `COc1cc2c(OC)c3c(c(-c4ccc(N5CCC6(CC5)OCCO6)nc4)c2cc1OC)COC3=O` [Example 260, 4-(6-(1,4-dioxa-8-azaspiro[4.5]decan-8-yl)pyridin-3-yl)-6,7,9-trimethoxynaphtho[2,3-c]furan-1(3H)-one], in the data set with SARS-COV-2, the “SI (Selectivity Index, CC50/IC50)” value turned out to be 1.00. The IC50 in the data set with SARS-COV-2 (setting [2]) was over 50 µM. Also, the CC50 in “in vitro” was over 50 µM.
On to `COc1cc2cccc(-c3c4c(cc5cc(OC)c(OC)cc35)COC4=O)c2cn1` [Example 133, 6,7-dimethoxy-9-(3-methoxyisoquinolin-8-yl)naphtho[2,3-c]furan-1(3H)-one], for which the “SI (Selectivity Index, CC50/IC50)” value in the data set with SARS-COV-2 is 1.0. For the same compound, the IC50 in the data set with SARS-COV-2 (setting [2]) was over 50 µM. The compound also showed a CC50 in the data set “in vitro” of over 50 µM.
Regarding `COc1cc2cc3c(c(-c4cnc(N(C)C)cn4)c2cc1OC)C(=O)OC3` [Example 31, 9-(5-(dimethylamino)pyrazin-2-yl)-6,7-dimethoxynaphtho[2,3-c]furan-1(3H)-one], the “SI (Selectivity Index, CC50/IC50)” value in the data set on SARS-COV-2 came out at 11.86. In addition, the IC50 in the data set with SARS-COV-2 (setting [2]) amounted to 4.22 µM. Also, in the data set “in vitro”, the CC50 is over 50 µM.
`CCNc1ccc(-c2c3c(cc4cc(OC)c(OC)cc24)COC3=O)cc1` [Example 250, 9-(4-(ethylamino)phenyl)-6,7-dimethoxynaphtho[2,3-c]furan-1(3H)-one]: the “SI (Selectivity Index, CC50/IC50)” value in the data set with SARS-COV-2 turned out to be 10.40. Further, in the data set on SARS-COV-2 (setting [2]), the IC50 amounted to 4.81 µM. This compound gave a CC50 in “in vitro” of over 50 µM.
For `COCCN(C)c1c2c(cc3cc(OC)c(OC)cc13)COC2=O` [Example 5, 6,7-dimethoxy-9-((2-methoxyethyl)(methyl)amino)naphtho[2,3-c]furan-1(3H)-one], the “SI (Selectivity Index, CC50/IC50)” value with SARS-COV-2 was 1.00. Also, the IC50 with SARS-COV-2 (setting [2]) was over 50 µM. This compound returned a CC50 in “in vitro” of over 50 µM.
`COc1cc2cc3c(c(-c4ccc(N5CCC(Cl)CC5)nc4)c2cc1OC)C(=O)OC3` [Example 142, 9-(6-(4-chloropiperidin-1-yl)pyridin-3-yl)-6,7-dimethoxynaphtho[2,3-c]furan-1(3H)-one]: in the data set on SARS-COV-2, the “SI (Selectivity Index, CC50/IC50)” value is listed as 25.00. Moreover, in the data set on SARS-COV-2 (setting [2]), the IC50 is 2 µM. The same compound gave a CC50 in the data set “in vitro” of over 50 µM.
For `COc1cc2cc3c(c(-c4cncc(OCCN(C)C)c4)c2cc1OC)C(=O)OC3.Cl` [Example 187, 9-(5-(2-(dimethylamino)ethoxy)pyridin-3-yl)-6,7-dimethoxynaphtho[2,3-c]furan-1(3H)-one], the “SI (Selectivity Index, CC50/IC50)” value in the data set on SARS-COV-2 worked out at 1.0. The concentration for half-maximal inhibition (IC50) in the data set with SARS-COV-2 (Severe acute respiratory syndrome coronavirus 2, Vero, 24 h) is over 50 µM. The compound further showed a CC50 in the data set “in vitro” of over 50 µM.
As for `COc1cc2cc3c(c(-c4cnc(N5CCCC(C(=O)O)C5)nc4)c2cc1OC)C(=O)OC3` (stereo not drawn) [Example 60, 1-(5-(6,7-dimethoxy-3-oxo-1,3-dihydronaphtho[2,3-c]furan-4-yl)pyrimidin-2-yl) piperidin-3-carboxylic acid], the “SI (Selectivity Index, CC50/IC50)” value with SARS-COV-2 was determined as 1.00. The half-maximal inhibitory concentration (IC50) with SARS-COV-2 (setting [2]) was over 50 µM. The compound further showed a CC50 in “in vitro” of over 50 µM.
Turning to `CCN(C)c1ccc(-c2c3c(cc4cc(OC)c(OC)cc24)COC3=O)cc1` [Example 248, 9-(4-(ethyl(methyl)amino)phenyl)-6,7-dimethoxynaphtho[2,3-c]furan-1(3H)-one], the “SI (Selectivity Index, CC50/IC50)” value with SARS-COV-2 was 344.5. Besides, the half-maximal inhibitory concentration (IC50) in the data set with SARS-COV-2 (setting [2]) is under 0.098 µM. In “in vitro”, this compound gave a CC50 of over 50 µM.
Consider `COc1cc2cc3c(c(-c4ccc5nccc(Cl)c5c4)c2cc1OC)C(=O)OC3` [Example 138, 9-(4-chloroquinolin-6-yl)-6,7-dimethoxynaphtho[2,3-c]furan-1(3H)-one], for which the “SI (Selectivity Index, CC50/IC50)” value in the data set on SARS-COV-2 is listed as 1.33. Also, the half-inhibitory concentration (IC50) with SARS-COV-2 (setting [2]) was 37.7 µM. In “in vitro”, this compound came in with a CC50 of over 50 µM.
The matching figures for `COc1cc2cc3c(c(-c4ccc(N5CCCC(C)C5)nc4)c2cc1OC)C(=O)OC3` (stereo not drawn) [Example 126, 6,7-dimethoxy-9-(6-(3-methylpiperidin-1-yl)pyridin-3-yl)naphtho[2,3-c]furan-1(3H)-one]: 122.97, 0.41 µM and over 50 µM.
In the same order, the values of `CCN(CCOC)c1ccc(-c2c3c(cc4cc(OC)c(OC)cc24)COC3=O)cc1` [Example 253, 9-(4-(ethyl(2-methoxyethyl)amino)phenyl)-6,7-dimethoxynaphtho[2,3-c]furan-1(3H)-one] are 20.54, 2.43 µM and over 50 µM.
